Converted amounts (≈) assume the structure as drawn.
Experiments:
[1] = ABTS radical scavenging activity; details: mean ± SD (n = 3)
Experimental: The ABTS radical scavenging activity of the sample was carried out using the method reported by Sun et al. with minor modification. Briefly, 1.76 mL of K2S2O8 (140 mM) and 100 mL of ABTS solution (7 mM) were mixed and stored in the dark at 25°C for 12 h. […] The absorbance of a blank (Ablank) and negative control (Acontrol) composed of only the sample and diluted ABTS^+ radical solutions was also determined, respectively. The ABTS radical scavenging activity of the sample was calculated by the following equation: […] = [1 - (Asample-Ablank)/Acontrol] × 100%. Vc was used as a positive control in this experiment.

[2] = DPPH radical scavenging activity; details: mean ± SD (n = 3)
Experimental: Briefly, 150 μL of DPPH solution (dissolved 0.2 mM in methanol) was mixed with 50 μL of the sample at different concentrations. The mixture was stirred and incubated in the dark at 30°C for 30 min, and the absorbance was determined at 517 nm (Asample). The absorbance of a blank (Ablank) and negative control (Acontrol) composed of only the sample and DPPH solutions was also determined, respectively. The DPPH radical scavenging activity of the sample was calculated by the following equation: DPPHscavengingactivity = [1 − (Asample–Ablank)/Acontrol] × 100%. Vc was used as a positive control in this experiment.

IC50 ABTS assay [1]: 1.2 ± 0.1 µg/mL (≈ 6.81 µM) | IC50 DPPH assay [2]: 6.0 ± 0.2 µg/mL (≈ 34.1 µM)
SMILES: O=C1O[C@H]([C@@H](O)CO)C(O)=C1O [Vc, L-Ascorbic acid]

Reference: PMC7700040, “Phytochemical Analysis, Anti-inflammatory, and Antioxidant Activities of Dendropanax dentiger Roots” (BioMed Research International, 2020)
